Reference: patent US20080280891A1, “Anti-cancer agents and uses thereof” (Locus Pharmaceuticals, Inc., priority 2006, published 2008)

What was measured:
Type in all cases: cell-based
Hela cells = test: Cell viability assay (WST-1), Hela cells; details: WST-1, 48-72 hrs, 0.5% fetal calf serum
Protocol: Jurkat and Hela cells were cultured in RPMI and EMEM media, respectively, containing 0.5% fetal calf serum. Cells were plated in a volume of 100 μL in a 96 well format. Test compounds were included in the culture media at concentrations ranging from 1 nM to 10 μM for a period of 48-72 hrs. Cell viability was determined using the WST-1 calorimetric mitochondrial reduction assay. Briefly, 10 μL of WST-1 reagent was included in the culture well for a period of 1 to 4 hrs. The WST-1 reaction was read on a multiwell spectrophotometer as the difference in the absorbance between 450 nm and 600 nm (baseline). Absorbance was proportional to the number of living cells in the culture well. Concentration response curves and IC50 values were calculated using GraphPAD Prism graphing and curve fitting program.

[1] = test system: Jurkat T-cell leukemic cells; test: Cell cycle assay (Example 163), G2/M block in Jurkat cells; details: 24 h, flow cytometry (PI), Table 2; for activation at 0.1 µM: Homo sapiens, Jurkat
Protocol: (§1) MCF-7 breast cancer cells and Jurkat T-cell leukemic cells were grown (and maintained) in EMEM and RPMI media, respectively, containing 10% fetal calf serum.
Test agents were added a concentration of 0.1 μM. Twenty-fours after test agent addition, cells were analyzed for cell cycle status as described below.
(§2) Cell cycle status was analyzed by flow cytometry. Briefly, cells were collected and washed with FACs buffer (Pharmingen) and resuspended and fixed in 1 mL of 80% ethanol for 1 hr. Cells were washed with FACs buffer and resuspended in propidium iodide(PI)/RNase staining buffer (Pharmingen). PI is a fluorescent dye that labels nucleic acids such as DNA. The fluorescence within a cell (in the presence of PI) is proportional to the amount of DNA within a cell. The cell content of DNA is an indices of status in the cell cycle. […] Cells in the S phase have DNA content that lies between these extremes.
(§3) For testing of cell cycle effects of test agents the percentage of cells within the G1 and G2/M phase were measured.

[2] = test system: MCF-7 breast cancer cells; test: Cell cycle assay (Example 163), G2/M block in MCF-7 cells; details: flow cytometry (PI), Table 2
Protocol: as §1
(§4) Cells were allowed to adhere for 24 hrs. After adherence, cell culture media was changed to that containing 0.5% FCS. Thirty minutes post-media change, test compounds were added at a concentration of 1 μM. Twenty-fours after test agent addition, cells were analyzed for cell cycle status as described below.
as §2, §3

[3] = test system: NCI-H522 non small cell lung cancer cells; test: Cell cycle assay (Example 164), G2/M block in NCI-H522 cells; details: Homo sapiens; for activation at 0.1 µM: 24 h, flow cytometry (PI); for IC50: H522, footnotes * and ** of Table 4, read-out: IC50 (footnote mark in H522 G2/M Block)
Protocol: (§5) The adherent MCF-7 breast cancer cells and NCI-H522 non small cell lung cancer cells were grown and maintained in EMEM cell culture media containing 10% fetal calf serum.
as §4, with “either 1.0 or 0.1 μM (as specified in the Tables). Twenty-four hours” for “1 μM. Twenty-fours”
as §2, with “indicator” for “indices”
as §3

[4] = test system: MCF-7 breast cancer cells; test: Cell cycle assay (Example 164), G2/M block in MCF-7 cells; details: for activation at 0.1 µM / IC50: Homo sapiens, MCF7; for activation at 0.1 µM / MCF-7 G2/M Block 1 μM: 24 h, flow cytometry (PI); for activation at 0.1 µM: Table 4; for IC50: MCF-7, footnotes * and ** of Table 4, read-out: IC50 (footnote mark in column MCF-7 G2/M Block); for MCF-7 G2/M Block 1 μM: Table 3
Protocol: as §5
as §4, with “either 1.0 or 0.1 μM (as specified in the Tables). Twenty-four hours” for “1 μM. Twenty-fours”
as §2, with “indicator” for “indices”
as §3

Row | Structure (SMILES) | activation at 0.1 µM ([3]; Table 4) | activation at 0.1 µM [4] | other results
1 | O=[N+]([O-])c1ccc2ccn(-c3cc(O)cc(Nc4cccnc4)c3)c2c1 [3-(6-Nitro-indol-1-yl)-5-(pyridin-3-ylamino)-phenol] | – | – | IC50 (Hela cells; Homo sapiens, HeLa): 1 to 999 nM; activation at 0.1 µM [1]: ≥ 50%
2 | [O-][n+]1cccc(Nc2cc(O)cc(-c3cccc4[nH]ccc34)c2)c1 [3-(1H-Indol-4-yl)-5-(1-oxy-pyridin-3-ylamino)-phenol] | – | – | IC50 (Hela cells): 1 to 999 nM; Jurkat G2/M Block 0.1 μM [1]: Y (Y indicates a 50% or greater increase in the number of cells in the G2/M phase, as compared to control); MCF-7 G2/M Block 1 μM ([2]; 24 h): Y (Y indicates a 50% or greater increase in the number of cells in the G2/M phase, as compared to control)
3 | N#Cc1ccc2c(ccn2-c2cc(O)cc(Nc3cccnc3)c2)c1 [1-[3-Hydroxy-5-(pyridin-3-ylamino)-phenyl]-1H-indole-5-carbonitrile] | – | – | IC50 (Hela cells; Homo sapiens, HeLa): 1000 to 30000 nM; activation at 0.1 µM [1]: ≥ 50%; activation at 1 µM ([2]; Homo sapiens, MCF7, 24 h): < 50%
4 | COC(=O)Nc1cc(-c2cccnc2)cc(-c2cccc3[nH]ccc23)c1 [[3-(1H-Indol-4-yl)-5-pyridin-3-yl-phenyl]-carbamic acid methyl ester] | ≥ 50% | < 50% | –
5 | Cc1cc(C(=O)c2cc(NS(C)(=O)=O)cc(-c3cccc4[nH]ccc34)c2)cc(N2CCOCC2)n1 [N-[3-(1H-Indol-4-yl)-5-(2-methyl-6-morpholin-4-yl-pyridine-4-carbonyl)-phenyl]-methanesulfonamide] | ≥ 50% | ≥ 50% | –
6 | CS(=O)(=O)Nc1cc(-c2ccc3c(c2)OCO3)cc(-c2cccc3[nH]ccc23)c1 [N-[3-benzo[1,3]dioxol-5-yl-5-(1H-indol-4-yl)-phenyl]-methanesulfonamide] | ≥ 50% | ≥ 50% | –
7 | CS(=O)(=O)Nc1cc(-c2cccc([N+](=O)[O-])c2)cc(-c2cccc3[nH]ccc23)c1 [N-[5-(1H-indol-4-yl)-3′-nitro-biphenyl-3-yl]-methanesulfonamide] | ≥ 50% | ≥ 50% | –
8 | COc1cc(C(=O)c2cc(C(N)=O)cc(-c3cccc4[nH]ccc34)c2)ccn1 [3-(1H-Indol-4-yl)-5-(2-methoxy-pyridine-4-carbonyl)-benzamide] | ≥ 50% | ≥ 50% | –
9 | CC(=O)Nc1cc(-c2ccc(C(F)(F)F)cc2)cc(-c2cccc3[nH]ccc23)c1 [N-[5-(1H-Indol-4-yl)-4′-trifluoromethyl-biphenyl-3-yl]-acetamide] | < 50% | < 50% | IC50 [3]: 100 to 1000 nM; IC50 [4]: 100 to 1000 nM
10 | COC(=O)Nc1cc(C(=O)c2cc(C)nc(C)c2)cc(-c2cccc3[nH]ccc23)c1 [[3-(2,6-Dimethyl-pyridine-4-carbonyl)-5-(1H-indol-4-yl)-phenyl]-carbamic acid methyl ester] | ≥ 50% | ≥ 50% | –
11 | COC(=O)Nc1cc(C(=O)c2cc(C)nc(N(C)C)c2)cc(-c2cccc3[nH]ccc23)c1 [[3-(2-Dimethylamino-6-methyl-pyridine-4-carbonyl)-5-(1H-indol-4-yl)-phenyl]-carbamic acid methyl ester] | ≥ 50% | ≥ 50% | –
12 | Oc1cc(-c2cccc3[nH]ccc23)nc(Nc2cccnc2)n1 [6-(1H-Indol-4-yl)-2-(pyridin-3-ylamino)-pyrimidin-4-ol] | – | – | IC50 (Hela cells; Homo sapiens, HeLa): 1000 to 30000 nM; activation at 0.1 µM [1]: ≥ 50%
13 | Oc1cc(Nc2cccnc2)cc(-c2cccc(-c3ccccc3)c2)c1 [5-(Pyridin-3-ylamino)-[1,1′;3′,1″]terphenyl-3-ol] | – | – | IC50 (Hela cells; Homo sapiens, HeLa): 1000 to 30000 nM
14 | Cc1cc(C(=O)c2cc(NS(C)(=O)=O)cc(-c3cccc4[nH]ccc34)c2)cc(N(C)C)n1 [N-[3-(2-Dimethylamino-6-methyl-pyridine-4-carbonyl)-5-(1H-indol-4-yl)-phenyl]-methanesulfonamide] | ≥ 50% | ≥ 50% | –
15 | Oc1cc(Nc2cccnc2)cc(-c2ccc3c(c2)CCC3)c1 [3-Indan-5-yl-5-(pyridin-3-ylamino)-phenol] | – | – | IC50 (Hela cells; Homo sapiens, HeLa): 1000 to 30000 nM
16 | COC(=O)Nc1cc(Nc2ccc(C#N)nc2)cc(-c2cccc3[nH]ccc23)c1 [[3-(6-Cyano-pyridin-3-ylamino)-5-(1H-indol-4-yl)-phenyl]-carbamic acid methyl ester] | – | – | activation at 0.1 µM ([3]; Table 3): < 50%; MCF-7 G2/M Block 1 μM [4]: Y (Y indicates a 50% or greater increase in the number of cells in the G2/M phase, as compared to control)
17 | CS(=O)(=O)Nc1cc(-c2ccnc(N)n2)cc(-c2cccc3[nH]ccc23)c1 [N-[3-(2-Amino-pyrimidin-4-yl)-5-(1H-indol-4-yl)-phenyl]-methanesulfonamide] | ≥ 50% | ≥ 50% | –
18 | CCc1ncccc1Nc1cc(O)cc(-c2cccc3[nH]ccc23)c1 [3-(2-Ethyl-pyridin-3-ylamino)-5-(1H-indol-4-yl)-phenol] | – | – | activation at 0.1 µM ([3]; Table 3): ≥ 50%; MCF-7 G2/M Block 1 μM [4]: Y (Y indicates a 50% or greater increase in the number of cells in the G2/M phase, as compared to control)
19 | CN(C)c1cc(C(=O)c2cc(NS(C)(=O)=O)cc(-c3cccc4[nH]ccc34)c2)ccn1 [N-[3-(2-Dimethylamino-pyridine-4-carbonyl)-5-(1H-indol-4-yl)-phenyl]-methanesulfonamide] | ≥ 50% | ≥ 50% | –
20 | CS(=O)(=O)Nc1cc(-c2ccnc(Cl)c2)cc(-c2cccc3[nH]ccc23)c1 [N-[3-(2-Chloro-pyridin-4-yl)-5-(1H-indol-4-yl)-phenyl]-methanesulfonamide] | ≥ 50% | ≥ 50% | –
21 | COc1cc(C(=O)c2cc(NS(C)(=O)=O)cc(-c3cccc4[nH]ccc34)c2)ccn1 [N-[3-(1H-Indol-4-yl)-5-(2-methoxy-pyridine-4-carbonyl)-phenyl]-methanesulfonamide] | – | – | activation at 0.1 µM ([3]; Table 3): ≥ 50%; MCF-7 G2/M Block 1 μM [4]: Y (Y indicates a 50% or greater increase in the number of cells in the G2/M phase, as compared to control)
22 | COc1cc(C(=O)c2cc(NS(C)(=O)=O)cc(-c3cccc4[nH]ccc34)c2)cc(C)n1 [N-[3-(1H-Indol-4-yl)-5-(2-methoxy-6-methyl-pyridine-4-carbonyl)-phenyl]-methanesulfonamide] | ≥ 50% | ≥ 50% | –
23 | COC(=O)Nc1cc(C(=O)c2ccnc(OC)c2)cc(-c2cccc3occc23)c1 [[3-Benzofuran-4-yl-5-(2-methoxy-pyridine-4-carbonyl)-phenyl]-carbamic acid methyl ester] | < 50% | < 50% | IC50 [3]: 500 to 5000 nM; IC50 [4]: 500 to 5000 nM
24 | CC(=O)Nc1cc(-c2cccnc2)cc(-c2cccc3[nH]ccc23)c1 [N-[3-(1H-Indol-4-yl)-5-pyridin-3-yl-phenyl]-acetamide] | ≥ 50% | ≥ 50% | –
25 | COC(=O)Nc1cc(-c2ccc(OC)nc2)cc(-c2cccc3[nH]ccc23)c1 [[3-(1H-Indol-4-yl)-5-(6-methoxy-pyridin-3-yl)-phenyl]-carbamic acid methyl ester] | ≥ 50% | < 50% | IC50 [4]: 100 to 1000 nM
26 | Nc1nccc(-c2cc(Br)cc(-c3cccc4[nH]ccc34)c2)n1 [4-[3-Bromo-5-(1H-indol-4-yl)-phenyl]-pyrimidin-2-ylamine] | ≥ 50% | ≥ 50% | –
27 | N#Cc1ccc(Nc2cc(O)cc(-c3cccc4[nH]ccc34)c2)cc1 [4-[3-Hydroxy-5-(1H-indol-4-yl)-phenylamino]-benzonitrile] | – | – | activation at 0.1 µM ([3]; Table 3): ≥ 50%; MCF-7 G2/M Block 1 μM [4]: N (N indicates a less than 50% increase at this dose)
